Source: ChEMBL document CHEMBL1667784, “Synthesis and structure-activity relationship of 2-thiopyrimidine-4-one analogs as antimicrobial and anticancer agents” (Eur J Med Chem, 2011)
Values after ≈ are worked out from the molar mass of the structure shown.

Tests used:
Moraxella catarrhalis [1] = assay: Antimicrobial activity against Branhamella catarrhalis assessed as growth inhibition at 128 ug/ml by agar dilution method; assay type: functional
Streptococcus pyogenes [2] = assay: Antimicrobial activity against Streptococcus pyogenes assessed as growth inhibition at 128 ug/ml by agar dilution method; assay type: functional
Neisseria mucosa [3] = assay: Antimicrobial activity against Neisseria mucosa assessed as growth inhibition at 128 ug/ml by agar dilution method; assay type: functional
KB = assay: Cytotoxicity against human KB cells after 3 days by MTT assay; assay type: functional, cell-based; conditions: 72 h
[4] = Cytotoxicity against human HuCCa1 cells after 3 days by MTT assay; assay type: functional, cell-based; conditions: HuCC-A1, 72 h
MDA-MB-231 = assay: Cytotoxicity against human MDA-MB-231 cells after 3 days by MTT assay; assay type: functional, cell-based; conditions: MDA-MB-231, 72 h
T47D = assay: Cytotoxicity against human T47D cells after 3 days by MTT assay; assay type: functional, cell-based; conditions: 72 h
A549 = assay: Cytotoxicity against human A549 cells after 3 days by MTT assay; assay type: functional, cell-based; conditions: A549, 72 h
Plasmodium falciparum = assay: Antimalarial activity against chloquine-resistant Plasmodium falciparum T9.94 infected in human erythrocyte assessed as decrease in parasite growth after 48 hrs by microscopy; assay type: functional, organism-based; conditions: T9.94, 48 h
H69AR = assay: Cytotoxicity against human H69AR cells after 3 days by MTT assay; assay type: functional, cell-based; conditions: 72 h
HeLa = assay: Cytotoxicity against human HeLa cells after 3 days by MTT assay; assay type: functional, cell-based; conditions: 72 h
HepG2 = assay: Cytotoxicity against human HepG2 cells after 3 days by MTT assay; assay type: functional, cell-based; conditions: HepG2, 72 h
[5] = Cytotoxicity against human HCC-S102 cells after 3 days by MTT assay; assay type: functional, cell-based; conditions: HCC-S102, 72 h
HL-60 = assay: Cytotoxicity against human HL60 cells after 3 days by MTT assay; assay type: functional, cell-based; conditions: HL-60, 72 h
P388 = assay: Cytotoxicity against mouse P388 cells after 3 days by MTT assay; assay type: functional, cell-based; conditions: P388, 72 h
Moraxella catarrhalis [6] = assay: Antimicrobial activity against Branhamella catarrhalis assessed as growth inhibition at 64 ug/ml by agar dilution method; assay type: functional
Candida albicans = assay: Antifungal activity against Candida albicans assessed as growth inhibition at 128 ug/ml by agar dilution method; assay type: functional
Moraxella catarrhalis [7] = assay: Antimicrobial activity against Branhamella catarrhalis assessed as growth inhibition at 10 ug/ml by agar dilution method; assay type: functional
Staphylococcus aureus = assay: Antimicrobial activity against Staphylococcus aureus ATCC 25923 assessed as growth inhibition at 10 ug/ml by agar dilution method; assay type: functional
Bacillus subtilis = assay: Antimicrobial activity against Bacillus subtilis ATCC 6633 assessed as growth inhibition at 10 ug/ml by agar dilution method; assay type: functional
[8] = test system: Staphylococcus epidermidis; assay: Antimicrobial activity against Staphylococcus epidermidis ATCC 12228 assessed as growth inhibition at 10 ug/ml by agar dilution method; assay type: functional
Streptococcus pyogenes [9] = assay: Antimicrobial activity against Streptococcus pyogenes assessed as growth inhibition at 10 ug/ml by agar dilution method; assay type: functional
Neisseria mucosa [10] = assay: Antimicrobial activity against Neisseria mucosa assessed as growth inhibition at 10 ug/ml by agar dilution method; assay type: functional
Edwardsiella tarda = assay: Antimicrobial activity against Edwardsiella tarda assessed as growth inhibition at 10 ug/ml by agar dilution method; assay type: functional

## CCCCSc1nccc(=O)[nH]1
Moraxella catarrhalis [1]
  inhibition at 128 µg/mL: 100%
Streptococcus pyogenes [2]
  inhibition at 128 µg/mL: 25%
Neisseria mucosa [3]
  inhibition at 128 µg/mL: 25%
KB
  IC50: 27 mg/L (≈ 147 µM)
[4]
  IC50: > 50 mg/L
MDA-MB-231
  IC50: > 50 mg/L
T47D
  IC50: 5 mg/L (≈ 27.1 µM)
A549
  IC50: > 50 mg/L
Plasmodium falciparum
  IC50: 10 µM
H69AR
  IC50: > 50 mg/L
HeLa
  IC50: > 50 mg/L
HepG2
  IC50: > 50 mg/L
[5]
  IC50: > 50 mg/L
HL-60
  IC50: > 50 mg/L
P388
  IC50: > 50 mg/L

## CCC(C)Sc1nccc(=O)[nH]1 (configuration not stated)
[4]
  IC50: > 50 mg/L
A549
  IC50: > 50 mg/L
Plasmodium falciparum
  IC50: 10 µM
HepG2
  IC50: > 50 mg/L

## O=c1ccnc(SCC2CCCCC2)[nH]1
Moraxella catarrhalis [6]
  inhibition at 64 µg/mL: 100%
Streptococcus pyogenes [2]
  inhibition at 128 µg/mL: 100%
Neisseria mucosa [3]
  inhibition at 128 µg/mL: 25%
Candida albicans
  inhibition at 128 µg/mL: 75%
KB
  IC50: > 50 mg/L
[4]
  IC50: > 50 mg/L
MDA-MB-231
  IC50: > 50 mg/L
T47D
  IC50: > 50 mg/L
A549
  IC50: > 50 mg/L
Plasmodium falciparum
  IC50: 10 µM
H69AR
  IC50: 50 mg/L (≈ 223 µM)
HeLa
  IC50: > 50 mg/L
HepG2
  IC50: > 50 mg/L
[5]
  IC50: > 50 mg/L
HL-60
  IC50: > 50 mg/L
P388
  IC50: 40.4 mg/L (≈ 180 µM)

## O=c1ccnc(SCc2ccccc2)[nH]1
Moraxella catarrhalis [1]
  inhibition at 128 µg/mL: 50%
Streptococcus pyogenes [2]
  inhibition at 128 µg/mL: 25%
KB
  IC50: > 50 mg/L
[4]
  IC50: > 50 mg/L
MDA-MB-231
  IC50: > 50 mg/L
T47D
  IC50: > 50 mg/L
A549
  IC50: > 50 mg/L
Plasmodium falciparum
  IC50: 10 µM
H69AR
  IC50: > 50 mg/L
HeLa
  IC50: > 50 mg/L
HepG2
  IC50: > 50 mg/L
[5]
  IC50: > 50 mg/L
HL-60
  IC50: > 50 mg/L
P388
  IC50: > 50 mg/L

## O=c1ccnc(SC23CC4CC(CC(C4)C2)C3)[nH]1
Moraxella catarrhalis [1]
  inhibition at 128 µg/mL: 75%
Streptococcus pyogenes [2]
  inhibition at 128 µg/mL: 25%
Neisseria mucosa [3]
  inhibition at 128 µg/mL: 25%
KB
  IC50: > 50 mg/L
[4]
  IC50: > 50 mg/L
MDA-MB-231
  IC50: > 50 mg/L
T47D
  IC50: 32 mg/L (≈ 122 µM)
A549
  IC50: > 50 mg/L
Plasmodium falciparum
  IC50: 10 µM
H69AR
  IC50: 35 mg/L (≈ 133 µM)
HeLa
  IC50: > 50 mg/L
HepG2
  IC50: 32.5 mg/L (≈ 124 µM)
[5]
  IC50: > 50 mg/L
HL-60
  IC50: > 50 mg/L
P388
  IC50: 36.9 mg/L (≈ 141 µM)

## CC1(C)S[C@@H]2[C@H](NC(=O)[C@H](N)c3ccccc3)C(=O)N2[C@H]1C(=O)O [AMPICILLIN]
Moraxella catarrhalis [7]
  inhibition at 10 µg/mL: 100%
Staphylococcus aureus
  inhibition at 10 µg/mL: 100%
Bacillus subtilis
  inhibition at 10 µg/mL: 100%
[8]
  inhibition at 10 µg/mL: 100%
Streptococcus pyogenes [9]
  inhibition at 10 µg/mL: 100%
Neisseria mucosa [10]
  inhibition at 10 µg/mL: 100%
Edwardsiella tarda
  inhibition at 10 µg/mL: 100%

## COc1cc([C@@H]2c3cc4c(cc3[C@@H](O[C@@H]3O[C@@H]5CO[C@@H](C)O[C@H]5[C@H](O)[C@H]3O)[C@H]3COC(=O)[C@H]23)OCO4)cc(OC)c1O [ETOPOSIDE]
KB
  IC50: 0.25 mg/L (≈ 0.425 µM)
[4]
  IC50: 4 mg/L (≈ 6.8 µM)
MDA-MB-231
  IC50: 0.24 mg/L (≈ 0.408 µM)
T47D
  IC50: 0.05 mg/L (≈ 0.085 µM)
A549
  IC50: 0.6 mg/L (≈ 1.02 µM)
H69AR
  IC50: 30 mg/L (≈ 51 µM)
HeLa
  IC50: 0.38 mg/L (≈ 0.646 µM)
HepG2
  IC50: 21 mg/L (≈ 35.7 µM)
[5]
  IC50: 6 mg/L (≈ 10.2 µM)
HL-60
  IC50: 0.85 mg/L (≈ 1.44 µM)
P388
  IC50: 0.12 mg/L (≈ 0.204 µM)
